Laboratory results: patent US10947254B2, “Methods for treating ulcerative colitis using 3-((1R,3s,5S)-3-((7-((5-methyl-1H-pyrazol-3-yl)amino)-1,6-naphthyridin-5-yl)amino)-8-azabicyclo[3.2.1]octan-8-yl)propanenitrile” (priority 2015, dated 2021)

Experiments:
[1] = tested on: oxazolone-induced colitis; assay: Mouse model of oxazolone-induced colitis; assay type: in vivo, BALB/C mice; conditions: mice, PO, 1, 3, and/or 10 mg/kg BID (doses up to 10 mg/kg BID)
Method: Assay 7: Mouse Model of Oxazalone-Induced Colitis
Oxazolone-induced colitis is an experimental model that has a histological resemblance to human ulcerative colitis (Heller et al. Immunology, 2002, 17, 629-638). Adult BALB/C mice from Harlan were used in the assay. On day 1, animals were lightly anesthetized with isoflurane and the hairs between the shoulder were carefully removed before oxazolone (4%, 150 μL, 4:1 acetone:olive oil formulation) or vehicle solution was slowly applied for skin sensitization. Seven days after skin sensitization, the mice were fasted overnight, anesthetized with isoflurane inhalation, and a 1 mL syringe equipped with a 3.5-F catheter, filled with oxazolone solution, was inserted carefully about 4 cm into the colon of the mouse. Following insertion, 50 μL of the oxazolone solution (1%, 1:1 ethanol:water formulation) was injected very slowly (over 30 sec using an injection pump) into the colon. The catheter was removed and the mice were held vertically (head down) for 2 min to ensure that the entire oxazolone solution remained inside the colon. Drug treatment (PO, BID or TID) or vehicle was initiated a day prior to the oxazolone intrarectal (IR) challenge. Two-day post oxazolone intrarectal challenge, the Disease Activity Index (DAI) was assessed by treatment-blinded experimenters for each mouse according to the criteria score: stool consistency score (0, normal; 2, loose; 4, diarrhea), gross bleeding score (0, absence; 2, blood tinged; 4, presence), and weight loss score (0, none; 1, 1%-5%; 2, 5%-10%; 3, 10%-20%; 4, more than 20%); DAI=average of (stool consistency score+gross bleeding score+weight loss score).
Selected compounds of the invention were tested in the assay. Efficacy in the model is evidenced by a decrease in DAI score as compared with the score from vehicle treated animals.

[2] = tested on: IL-13 induced STAT6 phosphorylation in BEAS-2B human lung epithelial cells; conditions: BEAS-2B cells
[3] = tested on: IL-4 induced STAT6 phosphorylation in THP-1 human monocytic cells; conditions: THP-1 cells

## Cc1cc(Nc2cc3ncccc3c(N[C@@H]3C[C@H]4CCC[C@@H](C3)N4CC(=O)N(C)C)n2)n[nH]1 [Example 1-38]
[1]
  decrease in DAI score as compared with vehicle treated animals: statistically significant decrease

## Cc1cc(Nc2cc3ncccc3c(N[C@@H]3C[C@H]4CC[C@@H](C3)N4CCF)n2)n[nH]1 [Example 2, N^5-((1R,3s,5S)-8-(2-fluoroethyl)-8-azabicyclo[3.2.1]octan-3-yl)-N^7-(5-methyl-1H-pyrazol-3-yl)-1,6-naphthyridine-5,7-diamine]
[1]
  decrease in DAI score as compared with vehicle treated animals: statistically significant decrease

## CCC(=O)N1[C@@H]2CC[C@H]1C[C@H](Nc1nc(Nc3cc(C)[nH]n3)cc3ncccc13)C2 [Example 2-1]
[1]
  decrease in DAI score as compared with vehicle treated animals: did not exhibit a statistically significant decrease

## CCC(C)C(=O)N1C2CCC1CC(Nc1nc(Nc3cc(C)[nH]n3)cc3ncccc13)C2 (stereo not shown) [Example 2-6]
[2]
  BEAS2B pIC50: A (A represents a pEC50 value ≥7.5 (EC50≤32 nM))
[1]
  decrease in DAI score as compared with vehicle treated animals: did not exhibit a statistically significant decrease

## Cc1cc(Nc2cc3ncccc3c(NC3CC4CCCC(C3)N4C(=O)C(C)O)n2)n[nH]1 (stereo not shown) [Example 2-16]
[1]
  decrease in DAI score as compared with vehicle treated animals: did not exhibit a statistically significant decrease

## CCOCC(=O)N1[C@@H]2CCC[C@H]1C[C@H](Nc1nc(Nc3cc(C)[nH]n3)cc3ncccc13)C2 [Example 2-17]
[2]
  BEAS2B pIC50: A (A represents a pEC50 value ≥7.5 (EC50≤32 nM))
[1]
  decrease in DAI score as compared with vehicle treated animals: did not exhibit a statistically significant decrease

## Cc1cc(Nc2cc3ncccc3c(N[C@@H]3C[C@H]4CC[C@@H](C3)N4S(=O)(=O)c3cccnc3)n2)n[nH]1 [Example 3, N^7-(5-methyl-1H-pyrazol-3-yl)-N^5-((1R,3s,5S)-8-(pyridin-3-ylsulfonyl)-8-azabicyclo[3.2.1]octan-3-yl)-1,6-naphthyridine-5,7-diamine]
[1]
  decrease in DAI score as compared with vehicle treated animals: statistically significant decrease

## Cc1cc(Nc2cc3ncccc3c(N[C@@H]3C[C@H]4CCC[C@@H](C3)N4C(=O)CN(C)C)n2)n[nH]1 [Example 4, 2-(Dimethylamino)-1-((1R,3s,5S)-3-((7-((5-methyl-1H-pyrazol-3-yl)amino)-1,6-naphthyridin-5-yl)amino)-9-azabicyclo[3.3.1]nonan-9-yl)ethan-1-one]
[1]
  decrease in DAI score as compared with vehicle treated animals: statistically significant decrease

## Cc1cc(Nc2cc3ncccc3c(N[C@@H]3C[C@H]4CC[C@@H](C3)N4S(=O)(=O)C3CC3)n2)n[nH]1 [Example 4-4]
[1]
  decrease in DAI score as compared with vehicle treated animals: did not exhibit a statistically significant decrease

## Cc1cc(Nc2cc3ncccc3c(N[C@@H]3C[C@H]4CC[C@@H](C3)N4C(=O)C(F)F)n2)n[nH]1 [Example 5, 2,2-difluoro-1-((1R,3s,5S)-3-((7-((5-methyl-1H-pyrazol-3-yl)amino)-1,6-naphthyridin-5-yl)amino)-8-azabicyclo[3.2.1]octan-8-yl)ethan-1-one]
[1]
  decrease in DAI score as compared with vehicle treated animals: statistically significant decrease

## Cc1cc(Nc2cc3nc(CO)ccc3c(N[C@@H]3C[C@H]4CC[C@@H](C3)N4CCC#N)n2)n[nH]1 [Example 5-11]
[3]
  THP-1 IL4 pIC50: A (A represents a pEC50 value ≥7.5 (EC50≤32 nM))
[1]
  decrease in DAI score as compared with vehicle treated animals: did not exhibit a statistically significant decrease

## COCCS(=O)(=O)N1[C@@H]2CC[C@H]1C[C@H](Nc1nc(Nc3cc(C)[nH]n3)cc3ncccc13)C2 [Example 6, N^5-((1R,3s,5S)-8-((2-methoxyethyl)sulfonyl)-8-azabicyclo[3.2.1]octan-3-yl)-N^7-(5-methyl-1H-pyrazol-3-yl)-1,6-naphthyridine-5,7-diamine]
[1]
  decrease in DAI score as compared with vehicle treated animals: statistically significant decrease

## Cc1cnc2cc(Nc3cc(C)[nH]n3)nc(N[C@@H]3C[C@H]4CCC[C@@H](C3)N4S(=O)(=O)N3CC(C#N)C3)c2c1 [Example 6-9]
[2]
  BEAS2B pIC50: A (A represents a pEC50 value ≥7.5 (EC50≤32 nM))
[3]
  THP-1 IL4 pIC50: A (A represents a pEC50 value ≥7.5 (EC50≤32 nM))

## COc1cnc2cc(Nc3cc(C)[nH]n3)nc(N[C@@H]3C[C@H]4CC[C@@H](C3)N4CC(C)C)c2c1 [Example 6-14]
[2]
  BEAS2B pIC50: A (A represents a pEC50 value ≥7.5 (EC50≤32 nM))
[3]
  THP-1 IL4 pIC50: A (A represents a pEC50 value ≥7.5 (EC50≤32 nM))

## COc1cnc2cc(Nc3cc(C)[nH]n3)nc(N[C@@H]3C[C@H]4CC[C@@H](C3)N4CCC(F)(F)F)c2c1 [Example 6-15]
[2]
  BEAS2B pIC50: A (A represents a pEC50 value ≥7.5 (EC50≤32 nM))
[3]
  THP-1 IL4 pIC50: A (A represents a pEC50 value ≥7.5 (EC50≤32 nM))

## COc1cnc2cc(Nc3cc(C)[nH]n3)nc(N[C@@H]3C[C@H]4CCC[C@@H](C3)N4Cc3ccncc3)c2c1 [Example 6-28]
[2]
  BEAS2B pIC50: A (A represents a pEC50 value ≥7.5 (EC50≤32 nM))
[3]
  THP-1 IL4 pIC50: A (A represents a pEC50 value ≥7.5 (EC50≤32 nM))

## COc1cnc2cc(Nc3cc(C)[nH]n3)nc(N[C@@H]3C[C@H]4CCC[C@@H](C3)N4S(C)(=O)=O)c2c1 [Example 6-29]
[2]
  BEAS2B pIC50: A (A represents a pEC50 value ≥7.5 (EC50≤32 nM))
[3]
  THP-1 IL4 pIC50: A (A represents a pEC50 value ≥7.5 (EC50≤32 nM))

## COc1cnc2cc(Nc3cc(C)[nH]n3)nc(N[C@@H]3C[C@H]4CCC[C@@H](C3)N4CCC#N)c2c1 [Example 6-31]
[2]
  BEAS2B pIC50: A (A represents a pEC50 value ≥7.5 (EC50≤32 nM))
[3]
  THP-1 IL4 pIC50: A (A represents a pEC50 value ≥7.5 (EC50≤32 nM))

## COC(=O)c1cnc2cc(Nc3cc(C)[nH]n3)nc(N[C@@H]3C[C@H]4CCC[C@@H](C3)N4CCC#N)c2c1 [Example 6-47]
[2]
  BEAS2B pIC50: A (A represents a pEC50 value ≥7.5 (EC50≤32 nM))
[3]
  THP-1 IL4 pIC50: A (A represents a pEC50 value ≥7.5 (EC50≤32 nM))

## CCS(=O)(=O)N1[C@@H]2CC[C@H]1C[C@H](Nc1nc(Nc3cc(C)[nH]n3)cc3ncccc13)C2 [Example 7, N^5-((1R,3s,5S)-8-(ethylsulfonyl)-8-azabicyclo[3.2.1]octan-3-yl)-N^7-(5-methyl-1H-pyrazol-3-yl)-1,6-naphthyridine-5,7-diamine]
[1]
  decrease in DAI score as compared with vehicle treated animals: did not exhibit a statistically significant decrease

## Cc1cc(Nc2cc3ncccc3c(N[C@@H]3C[C@H]4CCC[C@@H](C3)N4S(=O)(=O)c3cccnc3)n2)n[nH]1 [Example 8, N^7-(5-methyl-1H-pyrazol-3-yl)-N^5-((1R,3s,5S)-9-(pyridin-3-ylsulfonyl)-9-azabicyclo[3.3.1]nonan-3-yl)-1,6-naphthyridine-5,7-diamine]
[1]
  decrease in DAI score as compared with vehicle treated animals: statistically significant decrease

## Cc1cc(Nc2nc(N[C@@H]3C[C@H]4CC[C@@H](C3)N4S(C)(=O)=O)c3cccnc3c2F)n[nH]1 [Example 8-2]
[2]
  BEAS2B pIC50: C (C represents a pEC50 value <6.7 (EC50>200 nM))
[3]
  THP-1 IL4 pIC50: A (A represents a pEC50 value ≥7.5 (EC50≤32 nM))

## Cc1cc(Nc2nc(N[C@@H]3C[C@H]4CCC[C@@H](C3)N4S(C)(=O)=O)c3cccnc3c2F)n[nH]1 [Example 8-10]
[2]
  BEAS2B pIC50: A (A represents a pEC50 value ≥7.5 (EC50≤32 nM))
[3]
  THP-1 IL4 pIC50: A (A represents a pEC50 value ≥7.5 (EC50≤32 nM))

## Cc1cc(Nc2nc(N[C@@H]3C[C@H]4CCC[C@@H](C3)N4S(=O)(=O)c3cccnc3)c3cccnc3c2F)n[nH]1 [Example 8-12]
[2]
  BEAS2B pIC50: A (A represents a pEC50 value ≥7.5 (EC50≤32 nM))
[3]
  THP-1 IL4 pIC50: A (A represents a pEC50 value ≥7.5 (EC50≤32 nM))

## Cc1cc(Nc2nc(N[C@@H]3C[C@H]4CCC[C@@H](C3)N4Cc3ccncc3)c3cccnc3c2F)n[nH]1 [Example 8-14]
[2]
  BEAS2B pIC50: A (A represents a pEC50 value ≥7.5 (EC50≤32 nM))
[3]
  THP-1 IL4 pIC50: A (A represents a pEC50 value ≥7.5 (EC50≤32 nM))

## Cc1cc(Nc2cc3ncccc3c(N[C@@H]3C[C@H]4CCC[C@@H](C3)N4S(=O)(=O)c3ccccc3)n2)n[nH]1 [Example 9, N^7-(5-methyl-1H-pyrazol-3-yl)-N^5-((1R,3s,5S)-9-(phenylsulfonyl)-9-azabicyclo[3.3.1]nonan-3-yl)-1,6-naphthyridine-5,7-diamine]
[1]
  decrease in DAI score as compared with vehicle treated animals: did not exhibit a statistically significant decrease

## Cc1cc(Nc2cc3ncccc3c(N[C@@H]3C[C@H]4CCC[C@@H](C3)N4S(=O)(=O)N3CC(C#N)C3)n2)n[nH]1 [Example 11]
[1]
  decrease in DAI score as compared with vehicle treated animals: did not exhibit a statistically significant decrease

## Cc1cc(Nc2cc3nc(CO)ccc3c(N[C@@H]3C[C@H]4CC[C@@H](C3)N4C(=O)OCC(C)C)n2)n[nH]1 [Example 12, Isobutyl (1R,3s,5S)-3-((2-(hydroxymethyl)-7-((5-methyl-1H-pyrazol-3-yl)amino)-1,6-naphthyridin-5-yl)amino)-8-azabicyclo[3.2.1]octane-8-carboxylate]
[1]
  decrease in DAI score as compared with vehicle treated animals: statistically significant decrease

## Cc1cc(Nc2cc3ncccc3c(N[C@@H]3C[C@H]4CC[C@@H](C3)N4S(=O)(=O)N3CC(C#N)C3)n2)n[nH]1 [Example 13]
[1]
  decrease in DAI score as compared with vehicle treated animals: did not exhibit a statistically significant decrease
